From patent publication US5643604A, “Parenteral dosage form” (Aplicaciones Farmaceuticas S.A. De C.V., priority 1990, dated 1997)

How the values were obtained:
[1] = Differential thermal analysis (DSC); details: Shimadzu DSC 50 calorimeter
Source text: (§1) It is necessary to check that no chemical damage of the substances occurs during the spray-freezing process, which could modify their therapeutic properties. The starting materials (crystals) and the microspheres obtained by spray-freezing are compared by UV and IR spectrophotometry. UV spectras shall always be superimposable and IR spectras shall correspond. If differences in infrared spectras appear, it shall be checked if they are due to a polymorphism phenomenon, by means of an HPLC setup with diode-array detection. Differential thermal analysis is also used, not only to check the melting points, but also to determine if endothermic or exothermic transitions occur, due either to structure modifications or to a polymorphism, which may influence the microsphere information process, or due to heat-induced chemical reactions.
Thermal analysis: Shimadzu DSC 50 calorimeter and CR4A workstation.

[2] = Comparative UV spectrophotometric analysis before and after formation of microspheres; format: physicochemical; details: starting materials (crystals) vs microspheres obtained by spray-freezing; ethanol for 17-beta-estradiol and cholesterol, 0.1N HCl for the others
Source text: as §1
Equipment used in ultraviolet spectrography: Hewlett Packard model 8452A with photodiode arrangement and quartz cell with a beam of 0.1 cm.

[3] = Comparative infrared spectrophotometry (FT-IR, with HPLC diode-array) before and after formation of microspheres; format: physicochemical; details: after the formation of microspheres; potassium bromide dispersion
Source text: as §1
Equipment used in infrared spectrophotometry: Nicolet 205 FT-IR. Dispersion medium: potassium bromide. Chromatography: HPLC device with photo diode-array detector, model Waters 990 and Nec powermate 2 workstation.

[4] = general statement, no test described; cited from earlier work

Row | SMILES | degradation on differential thermograms [1] | chemical modification by UV spectrophotometry [2] | chemical modification by infrared spectrophotometry [3] | solubility in water [4]
1 | C[C@]12CC[C@@H]3c4ccc(O)cc4CC[C@H]3[C@@H]1CC[C@@H]2O [17-beta-estradiol] | no degradation | no trace of modification | no modification | 
2 | CCCC[N+]1(C)C2CC(OC(=O)C(CO)c3ccccc3)CC1C1OC12 (centres unmarked) [butylhioscine bromide] |  | no trace of modification | produces chemical modifications | 
3 | Cn1c(=O)c2c(ncn2C)n(C)c1=O [caffeine] | no degradation | no trace of modification |  | 
4 | CC(C)CCC[C@@H](C)[C@H]1CC[C@H]2[C@@H]3CC=C4C[C@@H](O)CC[C@]4(C)[C@H]3CC[C@]12C [cholesterol] |  | no trace of modification | no modification | 
5 | CN1C(=O)CN=C(c2ccccc2)c2cc(Cl)ccc21 [diazepam] | no degradation |  |  | 
6 | CCN(CC)CCNC(=O)c1cc(Cl)c(N)cc1OC [methoclopramide] |  |  |  | freely soluble in water
